The values that follow come from patent US12691143B2, “Method for treating cancer” (priority 2020, dated 2026).

Data set [1] concerns cisplatin-resistant MDA-MB-468 cell line. Put plainly: In vitro drug sensitivity assay in cisplatin-resistant derivative. It counts as cell-based. Conditions: cisplatin-resistant derivative of NER-deficient MDA-MB-468. How it is done: Cells were seeded in either 96-well (5,000 cells/well) or 24-well (20,000 cells/well) plates. The following day, irofulven and cisplatin stock solutions were serially diluted in media and added to cells. After 48 to 72 hours, media was removed and CellTiter-Glo® reagent (Promega; Madison, WI) was added. Plates were scanned using a luminescence microplate reader (BioTek). Survival at each drug concentration was plotted as a percentage of survival in drug-free media with error bars representing the standard deviation of at least three experiments.
Platinum-based chemotherapy is a first-line treatment for numerous solid malignancies including bladder cancer, but platinum resistance frequently occurs and represents a challenging clinical problem. Although a variety of platinum resistance mechanisms have been characterized, restoration or upregulation of DNA repair is a common mechanism of resistance, particularly in HR-deficient breast and ovarian tumors^33. Mechanisms of platinum resistance in NER deficient tumors have not been characterized, and we wished to determine if acquired resistance to cisplatin would confer cross-resistance to irofulven through restoration of NER. To test this, we derived cisplatin resistance in the NER-deficient MDA-MB-468 cell line by gradual exposure to escalating doses of cisplatin (Methods).

In data set [2] the test system is non-tumor cell lines with a TC-NER or common NER pathway gene defect. The note with it: cited from earlier work.
Data set [3] concerns MDA-MB-468 breast cancer cell line (NER deficient, ERCC4 silenced). Put plainly: In vitro drug sensitivity assay, parental vs ERCC4-complemented line. It counts as cell-based. The note with it: NER-deficient parental MDA-MB-468 compared with ERCC4-complemented counterpart. The source says:
(§1) Bladder cancer cell lines were purchased from ATCC. The KE1 bladder cancer cell line is a derivative of KU19-19 in which an ERCC2 T484 mutation has been introduced by CRISPR/Cas9 gene editing as previously described (6). The MDA-MB-468 breast cancer cell line and its ERCC4-complemented derivative have been previously described (35). Small interfering RNAs (siRNAs) targeting specific NER genes as well as a non-targeting siRNA (siNTC) were purchased from Integrated DNA Technologies Inc. (Coralville, IA, USA; see Table 9 for sequences). Cells were seeded in 6-well plates and grown to 50% confluency. A transfection mixture containing siRNA diluted to a final concentration of 30 nM in Opti-MEM media containing Lipofectamine 3000 (Life Technologies; Carlsbad, CA) was then added to cells. After 48 hours, cells were trypsinized and re-aliquoted to separate wells and transfected with 15 nM siRNA for 24 hours immediately prior to viability assays performed as described below. […]
(§2) Cells were seeded in either 96-well (5,000 cells/well) or 24-well (20,000 cells/well) plates. […] Plates were scanned using a luminescence microplate reader (BioTek). […]

Data set [4] relates to variety of tumor types, biomarker-unselected populations. Conditions: single agent, Phase I/II clinical trials; cited from earlier work.
In data set [5] the test system is SC14 (SW1710 derivative with ERCC2 P463L mutation). The data set can be described thus: In vitro drug sensitivity assay. It is filed as cell-based. Conditions: ERCC2-mutant SC14 line compared with SW1710.
From the text: as §1, §2

The subject of data set [6] is KE1 xenografts (NER-deficient). Put plainly: Xenograft study. It counts as in vivo, mice. How it is done:
(§3) Six week old female athymic nude mice, NU/J (Stock No: 002019) were purchased from Jackson Laboratory (Bar Harbor, ME) and housed at the Dana-Farber Cancer Institute Animal Resources Facility. All animal experiments were performed in accordance with an IACUC-approved protocol. At 7-10 weeks of age, mice were anesthetized with isoflurane and subcutaneously injected on the left flank with 3 million KE1 or 1 million KU19-19 cells mixed 1:1 with Matrigel (BD Biosciences; Mississauga, ON) in PBS. Tumor size was measured with a digital caliper twice weekly and calculated using the formula: (L×W^2)×½. Drug treatments were administered when the average tumor volume reached a minimum of 100 mm^3. Irofulven was prepared in PBS to a stock concentration of 200 μg/ml and was delivered intraperitoneally (IP) twice weekly at doses of 250 μg/kg, 500 μg/kg or 1 mg/kg for a total of 5 injections or until the tumor reached a pre-specified protocol endpoint. Control mice were injected with PBS alone. At the end of the experiment, mice were sacrificed and tumors were excised for tumor weight measurements and imaging.
(§4) Six week old female athymic nude mice, NU/J (Stock No: 002019) were purchased from Jackson Laboratory (Bar Harbor, ME) and housed at the Dana-Farber Cancer Institute Animal Resources Facility. All animal experiments were performed in accordance with an IACUC-approved protocol. At 7-10 weeks of age, mice were anesthetized with isoflurane and subcutaneously injected on the left flank with 3 million KE1 or 1 million KU19-19 cells mixed 1:1 with Matrigel (BD Biosciences; Mississauga, ON) in PBS. Tumor size was measured with a digital caliper twice weekly and calculated using the formula:
(§5) [formula] Drug treatments were administered when the average tumor volume reached a minimum of 100 mm^3. Irofulven was prepared in PBS to a stock concentration of 200 μg/ml and was delivered intraperitoneally (IP) twice weekly at doses of 250 μg/kg, 500 μg/kg or 1 mg/kg for a total of 5 injections or until the tumor reached a pre-specified protocol endpoint. Control mice were injected with PBS alone. At the end of the experiment, mice were sacrificed and tumors were excised for tumor weight measurements and imaging.

Data set [7] concerns KU19-19 xenografts (NER-proficient). Put plainly: Xenograft study. It counts as in vivo, mice. Conditions: 1 mg/kg irofulven. How it is done: as §3, §4, §5
The test system of data set [8] is KE1 bladder cancer cell line (ERCC2-mutated derivative of KU19-19, NER-deficient). Put plainly: In vitro drug sensitivity assay (CellTiter-Glo). It counts as cell-based. Conditions: NER-deficient KE1, compared with isogenic KU19-19; 48 to 72 hours.
From the text: as §1, §2
In general terms: In ATP-based viability assays light output follows the ATP content of the culture.

Molecules are shown by their SMILES. “Also recorded” adds a separate entry of the source.

With `CC1=C(CO)C2=C(C)C3(CC3)[C@@](C)(O)C(=O)C2=C1` [irofulven], the irofulven sensitivity result in data set [1] is on record as “remains sensitive; also recorded: highly sensitive”; in data set [3], “significantly more sensitive; also recorded: dramatically higher irofulven sensitivity”. In addition, the “toxicity to cells from patients with inactivating mutations in a TC-NER or common NER gene” value in data set [2] was “highly toxic”. Besides, the tolerability entry in data set [4] is “well-tolerated”. Besides, the drug sensitivity entry in data set [5] is “significantly increased sensitivity”. Also, the tumor dose response entry in data set [6] (250 μg/kg, 500 μg/kg or 1 mg/kg IP twice weekly) is given as “strong irofulven dose response”. Besides, in data set [6] (1 mg/kg IP twice weekly, total of five doses), the “tumor response (tumor volume)” value was “near complete tumor regression”. Besides, the xenograft weights entry in data set [6] (irofulven-treated vs untreated mice) is “significantly lower”. Further, the tumor response entry in data set [7] was “no response; also recorded: did not show response”. The “drug sensitivity (survival as percentage of drug-free media)” value in data set [8] is given as “significantly more sensitive; also recorded: highly sensitive; also recorded: increased sensitivity”.
